US20190070081A1, “DEODORIZING COSMETIC COMPOSITION AND METHOD FOR PREPARING SAME” (EINS CO., LTD., priority 2015, published 2019)

System: skin tissue model
Assay: Skin irritation test: MTT effective time (ET-50) viable cell assay on skin tissue model
Format: cell-based
Conditions: for % Viability: skin tissue
Protocol: The skin inflammation potential of a cleaning gel of product No. 1 (also known as Double. S Gel (Lot No. 15730A2); hereinafter, referred to as experimental product)) was evaluated using commercially available MTT effective time (ET-50) live cell experiment test and a skin tissue model.
The experiments performed at the Life Science Institute (BioScience Laboratories, Inc.) began on Sep. 2, 2015 and were completed on Sep. 4, 2015. One deviation in SOP generated during the experiments is shown in Tables 1 to 7 below, the protocols and/or SOP deviation recording formats (form number: 99-QA-004) of FIGS. 1 and 2. […] The skin tissue samples were exposed to the experimental product for 1 hour, 4 hours, or 24 hours.
The experimental product was tested undiluted, as provided by the sponsor. Three untreated negative control dermal tissue specimens were exposed for 24 hours.
The first tissue specimen, the second tissue specimen, and the third tissue specimen were exposed to 1.0% Triton X-100 (Lot No. 082615BBA) as a positive control for 1, 4, and 24 hours, respectively.
At the same time as the experimental procedure, MTT control was evaluated, and the evaluation was regarded as a result of direct reduction of the MTT product. […] During the experimental procedure, the frozen tissue was exposed to the experimental product to determine whether the experimental product was effectively washed from tissue.
The absorbance of the specimens was determined using a VERSA Max™ Tunable Microplate Reader (with SOFTmax® PRO Software) set to 570 nm with several […] aliquots of isopropyl alcohol.
Absorbance values were converted into the probabilistic feasibility of tissue culture by SOFTmax® PRO Software. These values were expressed as time-dependent by SOFTmax® PRO Software, and then ET-50 was determined by interpolation. ET-50 is an estimated time when the probabilistic feasibility of tissues falls to 50%.

Triton X-100 [Positive Control]
Irritancy Classification (Expected In-Vivo Irritancy) (from MTT ET-50): Moderate to Mild Irritation
% Viability (1 hour exposure): 66.51%
% Viability (4 hours exposure): 78.40%
% Viability (24 hours exposure): 6.06%
MTT ET-50 (tested undiluted, skin tissue exposed 1, 4, 24 hours, time at which viability falls to 50%, by interpolation): 4.65 h
